Measurements reported in US6495370B1, “Inhibition of glutathione transferase by haloenol lactones” (The Regents of the University of California, priority 1995, dated 2002).
Where two headings read alike, the source gives them in different places.

What was measured:
Type in all cases: biochemical
GST pi isozyme [1] = target: T1, GST pi isozyme (Mus musculus, UniProt P19157); assay: Time-dependent inhibition of GST pi with and without S-hexylglutathione; conditions: haloenol lactone 2 200 μM
T1 construct: The three major mouse liver GST isoenzymes were purified according to established methods; from tissue; host or cells: liver of male CD-1 mice
Experimental: FIG. 7: Inactivation of glutathione S-transferase (GST) pi isozyme by haloenol lactone 2. The GST concentration was 1.0 μM): ●, control; ▴, +haloenol lactone 2 (200 μM), no S-hexylglutathione; ▪, +haloenol lactone 2 (200 μM), +S-hexylglutathione (2,000 μM).
Enzyme inhibition studies and enzyme assays for this experiment were performed as described in Example 3. S-hexylglutathione dissolved in a 0.1 M potassium phosphate buffer (pH 6.5) was added in the incubation solution. […] In this experiment, we incubated compound 2 with GST-pi isozyme in the presence of S-hexylglutathione (2,000 μM), a competitive inhibitor of GST. […] (See FIG. 7).

GST pi isoenzyme [2] = target: T2, GST pi isoenzyme (Mus musculus, UniProt P19157); assay: Kinetic constants for inhibition of GST pi isoenzyme
T2 construct: The three major mouse liver GST isoenzymes were purified according to established methods; from tissue; host or cells: liver of male CD-1 mice
Experimental: Compounds 1 and 2 were synthesized and purified as described in Example 1, and GST pi isoenzyme was isolated from mouse liver as described in Example 2. Enzyme inhibition studies were performed as described in Example 3, except that four different concentrations of inhibitor were used. Enzyme assays were performed as described in Example 3.

GST pi isoenzyme [3] = target: T2, GST pi isoenzyme; assay: Time-dependent inhibition of purified GST pi isoenzyme (GSH/CDNB activity assay); conditions: for enzyme activity of GST pi: 100 μM compound, GST 1.0 μM, after 5 minutes at 37° C.; for nature of inhibitory effect on GST pi isozyme: summary statement
Experimental: (§1) The three major mouse liver GST isoenzymes were purified according to established methods. Male CD-1 mice, 25-35 g, were purchased from Charles River Breeding Laboratories, Inc. (Wilmington, Mass.). Animals were housed on autoclaved pine shavings in approved animal care facilities and fed ad libitum for 1 week prior to cervical dislocation.
Mice were killed by cervical dislocation and livers were removed, rinsed with ice-cold 10 mM Tris buffer (pH 7.4) containing 0.25 M sucrose, 1 mM EDTA and 1 mM DTT (buffer A). The tissues were homogenized in buffer A (1 g tissue/2 mL buffer). Centrifugation and all subsequent purification steps were carried out at 4° C. The homogenate was centrifuged at 10,000 g for 30 min. The supernatant fraction was then collected and centrifuged at 100,000 g for 80 min. Supernatant was next passed through a Sephadex G-25 Column (100 cm×2.5 cm) which had been pre-equilibrated in 25 mM potassium phosphate buffer (pH 7.4) containing 1 mM EDTA and 1 mM DTT (buffer B). Column eluants were monitored at 280 nm using an Isco-UA5 detector. The elutant from the G-25 column containing GST activity was applied to an affinity column (11 cm×2.5 cm, GSH-linked agarose, Sigma) at a flow rate of 0.64 ml/min. The first two GST isozymes were eluted using a linear gradient (0-75 mM) of GSH in buffer b (250 mL×250 mL). The third peak containing activity towards CDNB was eluted by using a linear gradient of increasing pH (7.4-9.0) in buffer b which was 75 mM in GSH (150 mL×150 mL). The three main peaks of activity were recovered and pooled separately. Each pool was concentrated to 25-30 mL in an Amicon ultrafiltration cell (Amicon, Inc., Beverly, Mass., USA) with a PM 10 membrane and dialyzed against 4L nanopure water. Pooled proteins were analyzed by ESI/MS to determine purity and subunit molecular weight. […]
(§2) For the enzyme inhibition studies, solutions of alpha, mu and pi glutathione S-transferase (1.0 μg/μl) were prepared in a 0.1 M potassium phosphate buffer (pH 6.5). […] Aliquots were withdrawn at 1, 3, 5, 8 and 12 min, and GST activity was measured using GSH and CDNB as substrates according to the method of Habig et al. (1974) J. Biol. Chem. 249:7130-7139.
In brief, the activity of the enzyme was determined in a 0.1 M potassium phosphate buffer (pH 6.5) containing 1 mM GSH and 1 mM CDNB using an extinction coefficient of 9.6 mM^−1 cm^−1. […] The rate of product formation was monitored by measuring the change in absorbance at 340 nm using a Shimadzu PC-2101 uv-visible spectrophotometer (Shimadzu Scientific Instruments, Columbia, Md., USA). Specific activities are based on protein concentrations as determined by the Bradford protein determination kit from Biorad, Hercules, Calif., USA, using bovine serum albumin as a reference.

GST pi isozyme [4] = target: T1, GST pi isozyme; assay: Irreversible inhibition of GST pi: activity after incubation and exhaustive dialysis; conditions: 10-fold excess of compound, 37° C., 3 hours, then dialysis against 6 changes of water
Experimental: The dialyzed protein sample was dried by lyophilization. The recovered protein was re-dissolved in water, and specific enzyme activity was determined by measuring the protein content and GST activity.

GST alpha = target: T3, GST alpha (Mus musculus, UniProt P30115); assay: Time-dependent inhibition of purified GST alpha isoenzyme (GSH/CDNB activity assay); conditions: 100 μM compound, GST 1.0 μM, after 5 minutes at 37° C.
T3 construct: The three major mouse liver GST isoenzymes were purified according to established methods; from tissue; host or cells: liver of male CD-1 mice
T3 sequence (P30115 2-221 limits assumed): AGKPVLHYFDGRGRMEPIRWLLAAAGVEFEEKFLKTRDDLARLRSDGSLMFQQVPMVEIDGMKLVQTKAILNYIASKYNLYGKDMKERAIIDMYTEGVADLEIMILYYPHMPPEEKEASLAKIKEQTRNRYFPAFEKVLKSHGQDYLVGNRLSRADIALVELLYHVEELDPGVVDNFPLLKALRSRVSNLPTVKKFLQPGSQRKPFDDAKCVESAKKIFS
Experimental: as §1
(§3) Mice were killed by cervical dislocation and livers were removed, rinsed with ice-cold 10 mM Tris buffer (pH 7.4) containing 0.25 M sucrose, 1 mM EDTA and 1 mM DTT (buffer A). The tissues were homogenized in buffer A (1 g tissue/2 mL buffer). Centrifugation and all subsequent purification steps were carried out at 4° C. […] Column eluants were monitored at 280 nm using an Isco-UA5 detector. […] Pooled proteins were analyzed by ESI/MS to determine purity and subunit molecular weight. […]
as §2
(§4) In brief, the activity of the enzyme was determined in a 0.1 M potassium phosphate buffer (pH 6.5) containing 1 mM GSH and 1 mM CDNB using an extinction coefficient of 9.6 mM^−1 cm^−1. […]

GST mu = target: T4, GST mu (Mus musculus, UniProt P10649); assay: Time-dependent inhibition of purified GST mu isoenzyme (GSH/CDNB activity assay); conditions: 100 μM compound, GST 1.0 μM, after 5 minutes at 37° C.
T4 construct: The three major mouse liver GST isoenzymes were purified according to established methods; from tissue; host or cells: liver of male CD-1 mice
T4 sequence (P10649 2-218 limits assumed): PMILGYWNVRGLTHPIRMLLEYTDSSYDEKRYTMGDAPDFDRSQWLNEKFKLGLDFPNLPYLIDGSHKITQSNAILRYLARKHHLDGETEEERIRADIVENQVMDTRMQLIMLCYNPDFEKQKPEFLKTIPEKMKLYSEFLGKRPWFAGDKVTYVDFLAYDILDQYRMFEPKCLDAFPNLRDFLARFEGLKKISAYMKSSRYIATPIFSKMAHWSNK
Experimental: as §1, §3, §2, §4

[5] = GST pi 1.0 μM, 37° C., four inhibitor concentrations

T1 sequence (P19157 2-210 limits assumed): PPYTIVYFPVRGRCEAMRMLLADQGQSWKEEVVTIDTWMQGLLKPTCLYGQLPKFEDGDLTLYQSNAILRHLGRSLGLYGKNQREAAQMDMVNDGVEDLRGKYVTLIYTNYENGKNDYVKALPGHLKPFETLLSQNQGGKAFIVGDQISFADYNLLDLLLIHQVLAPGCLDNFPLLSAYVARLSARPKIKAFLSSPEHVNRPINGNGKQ
T2 sequence (P19157 2-210 limits assumed): as above

Row | Structure (SMILES) | time in which the enzyme was totally inactivated (GST pi isozyme [1]; GST 1.0 μM, no S-hexylglutathione) | Ki (GST pi isoenzyme [2]) | kinact (GST pi isoenzyme [2]; [5]) | kinact/KI (GST pi isoenzyme [2]; read-out: kinact/KI ratio) | enzyme activity of GST pi (GST pi isoenzyme [3]) | nature of inhibitory effect on GST pi isozyme (GST pi isoenzyme [3]) | enzyme activity of modified GST remained relative to the control (GST pi isozyme [4]) | restoration of GST activity by exhaustive dialysis (GST pi isozyme [4]) | effect of S-hexylglutathione on time-dependent inhibition of GST by compound 2 (GST pi isozyme [1]; S-hexylglutathione 2,000 μM, GST pi 1.0 μM) | Ki (GST pi isoenzyme [2]; GST pi 1.0 μM, 37° C., four inhibitor concentrations, read-out: KI) | kinact/KI (GST pi isoenzyme [2]; GST pi, read-out: kinact/KI ratio (converted)) | enzyme activity of GST alpha remained (GST alpha) | enzyme activity of GST mu remained (GST mu)
1 | O=C1O/C(=C/Br)CC1CC=Cc1ccccc1 (stereo not shown) [compound 2, 3-Cinnamyl-5(E)-bromomethylidenetetrahydro-2-furanone] | 8 min | 86.7 µM | 0.00933 s⁻¹ | 108 M⁻¹ s⁻¹ | completely inhibited | time-dependent and irreversible | 7.8% | not restored |  |  |  |  | 
2 | CCCCCCSC[C@H](NC(=O)CC[C@H](N)C(=O)O)C(=O)NCC(=O)O [S-hexylglutathione, reference compound] |  |  |  |  |  |  |  |  | completely suppressed |  |  |  | 
3 | O=C1O/C(=C/Br)CC1CC1OC1c1ccccc1 (stereo not drawn) [compound 1, 3-Cinnamyl-(α,β-epoxy)-5(E)-bromomethylidenetetrahydro-2-furanone] |  |  | 0.0198 s⁻¹ |  | completely inhibited | time-dependent and irreversible |  |  |  | 64.4 µM | 308 M⁻¹ s⁻¹ | about 80% | about 80%
